Assay results published in the NIST ThermoML archive (doi:10.1016/j.tca.2007.03.018).

Experiments:
[1] = molar heat capacity at constant pressure; details: 101.33 kPa
[2] = for molar entropy: 101.33 kPa; for vapor or sublimation pressure: Knudsen effusion
[3] = Molar enthalpy of transition or fusion

C1C2CC3CC1CC(C14CC5CC(CC(C5)C1)C4)(C2)C3 [1,1'-biadamantane]
Details | molar entropy, [2] [J/K/mol] | molar heat capacity at constant pressure, [1] [J/K/mol] | vapor or sublimation pressure, [2] [kPa]
5 K, Crystal 3, Small (less than 1 g) adiabatic calorimetry | 0.123 | 0.4412 | –
10 K, Crystal 3, Small (less than 1 g) adiabatic calorimetry | 1.008 | 3.035 | –
20 K, Crystal 3, Small (less than 1 g) adiabatic calorimetry | 6.713 | 16 | –
30 K, Crystal 3, Small (less than 1 g) adiabatic calorimetry | 16.03 | 30.58 | –
40 K, Crystal 3, Small (less than 1 g) adiabatic calorimetry | 26.5 | 42.31 | –
50 K, Crystal 3, Small (less than 1 g) adiabatic calorimetry | 37.01 | 52.05 | –
60 K, Crystal 3, Small (less than 1 g) adiabatic calorimetry | 47.28 | 60.95 | –
70 K, Crystal 3, Small (less than 1 g) adiabatic calorimetry | 57.32 | 69.55 | –
80 K, Crystal 3, Small (less than 1 g) adiabatic calorimetry | 67.2 | 78.54 | –
90 K, Crystal 3, Small (less than 1 g) adiabatic calorimetry | 76.98 | 87.69 | –
100 K, Crystal 3, Small (less than 1 g) adiabatic calorimetry | 86.7 | 97.04 | –
110 K, Crystal 3, Small (less than 1 g) adiabatic calorimetry | 96.4 | 106.6 | –
120 K, Crystal 3, Small (less than 1 g) adiabatic calorimetry | 106.1 | 116.4 | –
130 K, Crystal 3, Small (less than 1 g) adiabatic calorimetry | 115.8 | 126.3 | –
140 K, Crystal 3, Small (less than 1 g) adiabatic calorimetry | 125.5 | 136.4 | –
150 K, Crystal 3, Small (less than 1 g) adiabatic calorimetry | 135.2 | 146.7 | –
160 K, Crystal 3, Small (less than 1 g) adiabatic calorimetry | 145.1 | 157.3 | –
170 K, Crystal 3, Small (less than 1 g) adiabatic calorimetry | 155 | 168.2 | –
180 K, Crystal 3, Small (less than 1 g) adiabatic calorimetry | 164.9 | 179.3 | –
190 K, Crystal 3, Small (less than 1 g) adiabatic calorimetry | 174.9 | 190.7 | –
200 K, Crystal 3, Small (less than 1 g) adiabatic calorimetry | 184.9 | 202.7 | –
210 K, Crystal 3, Small (less than 1 g) adiabatic calorimetry | 195.1 | 214.7 | –
220 K, Crystal 3, Small (less than 1 g) adiabatic calorimetry | 205.4 | 227.1 | –
230 K, Crystal 3, Small (less than 1 g) adiabatic calorimetry | 215.8 | 240 | –
240 K, Crystal 3, Small (less than 1 g) adiabatic calorimetry | 226.3 | 253.4 | –
250 K, Crystal 3, Small (less than 1 g) adiabatic calorimetry | 237 | 267.7 | –
260 K, Crystal 3, Small (less than 1 g) adiabatic calorimetry | 247.6 | 281.1 | –
270 K, Crystal 3, Small (less than 1 g) adiabatic calorimetry | 258.5 | 295.3 | –
273.15 K, Crystal 3, Small (less than 1 g) adiabatic calorimetry | 262.1 | 299.8 | –
280 K, Crystal 3, Small (less than 1 g) adiabatic calorimetry | 269.5 | 309.6 | –
290 K, Crystal 3, Small (less than 1 g) adiabatic calorimetry | 280.6 | 324 | –
298.15 K, Crystal 3, Small (less than 1 g) adiabatic calorimetry | 289.9 | 335.3 | –
300 K, Crystal 3, Small (less than 1 g) adiabatic calorimetry | 291.9 | 338 | –
310 K, Crystal 3, Small (less than 1 g) adiabatic calorimetry | 303.2 | 352.8 | –
320 K, Crystal 3, Small (less than 1 g) adiabatic calorimetry | 314.6 | 366.5 | –
330 K, Crystal 3, Small (less than 1 g) adiabatic calorimetry | 326.1 | 378.2 | –
336.3 K, Crystal 2, Small (less than 1 g) adiabatic calorimetry | 336.8 | 385 | –
336.3 K, Crystal 3, Small (less than 1 g) adiabatic calorimetry | 333.4 | 385 | –
340 K, Crystal 2, Small (less than 1 g) adiabatic calorimetry | 340 | 389 | –
350 K, Crystal 2, Small (less than 1 g) adiabatic calorimetry | 352.4 | 400 | –
360 K, Crystal 2, Small (less than 1 g) adiabatic calorimetry | 362.8 | 412 | –
370 K, Crystal 2, Small (less than 1 g) adiabatic calorimetry | 374.3 | 424 | –
380 K, Crystal 2, Large sample (1 g) DSC | 385.8 | 437 | –
390 K, Crystal 2, Large sample (1 g) DSC | 397.3 | 450 | –
392.77 K, Crystal 2 | – | – | 0.0005447
398 K, Crystal 2 | – | – | 0.0008576
400 K, Crystal 2, Large sample (1 g) DSC | 408.8 | 463 | –
402.91 K, Crystal 2 | – | – | 0.001308
407.9 K, Crystal 2 | – | – | 0.001881
410 K, Crystal 2, Large sample (1 g) DSC | 420.4 | 477 | –
412.88 K, Crystal 2 | – | – | 0.002772
417.8 K, Crystal 2, Large sample (1 g) DSC | 429.5 | 487 | –
420 K, Crystal 2, Large sample (1 g) DSC | 432.1 | 491 | –
422.86 K, Crystal 2 | – | – | 0.006026
427.75 K, Crystal 2 | – | – | 0.00828
430 K, Crystal 2, Large sample (1 g) DSC | 444 | 505 | –
432.81 K, Crystal 2 | – | – | 0.01195
437.82 K, Crystal 2 | – | – | 0.01674
440 K, Crystal 2, Large sample (1 g) DSC | 456 | 520 | –
442.66 K, Crystal 2 | – | – | 0.02466
450 K, Crystal 2, Large sample (1 g) DSC | 467 | 535 | –
460 K, Crystal 2, Large sample (1 g) DSC | 479 | 551 | –
470 K, Crystal 2, Large sample (1 g) DSC | 491 | 567 | –
480 K, Crystal 2, Large sample (1 g) DSC | 503 | 582 | –
490 K, Crystal 2, Large sample (1 g) DSC | 516 | 598 | –
500 K, Crystal 2, Large sample (1 g) DSC | 528 | 614 | –
509.6 K, Crystal 1, Large sample (1 g) DSC | 542 | 629 | –
509.6 K, Crystal 2, Large sample (1 g) DSC | 540 | 629 | –
510 K, Crystal 1, Large sample (1 g) DSC | 543 | 630 | –
520 K, Crystal 1, Large sample (1 g) DSC | 555 | 646 | –
530 K, Crystal 1, Large sample (1 g) DSC | 568 | 662 | –
535 K, Crystal 1, Large sample (1 g) DSC | 574 | 669 | –
540 K, Crystal 1, Large sample (1 g) DSC | 580 | 677 | –
545 K, Crystal 1, Large sample (1 g) DSC | 586 | 685 | –
550 K, Crystal 1, Large sample (1 g) DSC | 593 | 693 | –
555 K, Crystal 1, Large sample (1 g) DSC | 599 | 701 | –
560 K, Crystal 1, Large sample (1 g) DSC | 605 | 709 | –

Details | Molar enthalpy of transition or fusion, Crystal 1, DSC [kcal/mol] | Molar enthalpy of transition or fusion, Crystal 2, DSC [kcal/mol] | Molar enthalpy of transition or fusion, Crystal 3, Adiabatic calorimetry [kcal/mol] | Triple point temperature, Crystal 1, DTA [K] | Triple point temperature, Crystal 2, DTA [K] | Triple point temperature, Crystal 3 [K]
[2] | – | – | – | 561 | 509.6 | 336.3
[3] | 16.7 | 0.311 | 0.276 | – | – | –
